Blank lines part the entries; values can stand above or below the compound they belong to.
What was measured:
Assay type in all cases: physicochemical
[1] = pH at which torsemide begins to precipitate on acidifying the basified aqueous/alcohol solution; settings: water/organic solvent (isopropanol or ethanol) solution, pH lowered with acid
Description: An organic solvent is then added to the torsemide solution with stirring. Suitable solvents include water soluble or partially water soluble alcohols such as propanol, isopropanol and ethanol. Preferably, the solvent is isopropanol or ethanol. The pH of the torsemide solution is then lowered by the addition of a suitable acid until the solution begins to become cloudy and torsemide Dupont Form 2 begins to precipitate. Torsemide begins to precipitate at about pH 6. Suitable acids include acetic acid, hydrochloric acid, sulfuric acid, mineral acids and the like. Acetic acid is preferred. Since torsemide is known to decompose at pH 3.0, the pH of the solution is preferably maintained at about 6±0.1 with a minimum pH of […] and a maximum pH of 7.5±0.5. Torsemide Dupont Form 2 is then isolated by filtration and drying to remove solvent.
An organic solvent is then added to the torsemide solution with stirring. Suitable solvents include water soluble or partially water soluble alcohols such as propanol, isopropanol and ethanol. Preferably, the solvent is isopropanol or ethanol. The pH of the torsemide solution is then lowered by the addition of a suitable acid until the solution begins to become cloudy and torsemide Dupont Form 2 solvent adduct begins to precipitate. Torsemide begins to precipitate at about pH 6. […]

[2] = solubility of amorphous torsemide compared with crystalline forms; settings: compared with crystalline forms reported in U.S. Pat. No. 5,914,336, U.S. Pat. No. Re. 34,672 and WO 00/20395
[3] = stability of the crystal form in an ethanol slurry; settings: stirred at room temperature
Description: (§1) In another embodiment of the present invention, torsemide modification I may be made from torsemide modification II by reslurry in ethanol. By the process of the present invention, torsemide modification II is stirred at room temperature in ethanol for a time sufficient to induce the transformation of torsemide modification II to torsemide modification I. Preferably the mixture is stirred for 2 hours. Torsemide modification I is isolated upon filtering the mixture followed by drying under high vacuum at a temperature of about 40° C. to about 60° C. for a sufficient time to complete drying. Drying is complete upon reaching constant weight. It has been observed that torsemide modification I is stable in an ethanol slurry for at least 65 hours.
as §1, with “dimethyl formamide (DMF).” for “ethanol.”, “methods” for “process”, “DMF” for “ethanol”, “I.” for “I. Preferably the mixture is stirred for 2 hours.”, “It has been observed that torsemide modification I is stable in an ethanol slurry for at least 65 hours.” left out

pH at which torsemide begins to precipitate [1]: about 6 pH
Compound: Cc1cccc(Nc2ccncc2S(=O)(=O)NC(=O)NC(C)C)c1 [torsemide, 1-Isopropyl-3-[(4-m-toluidino-3-pyridyl)sulfonyl]urea]

Compound: Cc1cccc(Nc2ccncc2S(=O)(=O)NC(=O)NC(C)C)c1 [amorphous torsemide]
solubility relative to crystalline forms of torsemide [2]: more soluble than crystalline forms of torsemide

time stable in an ethanol slurry [3]: at least 65 hours
Compound: Cc1cccc(Nc2ccncc2S(=O)(=O)NC(=O)NC(C)C)c1 [torsemide modification I]
